# Data: US20060094676A1, “Compositions and methods for treating cancer using compositions comprising an inhibitor of endothelin receptor activity” (priority 2004, published 2006)
# Experiments:
# caspase 6 = experiment: Mch2/Caspase-6 colorimetric protease assay on cell lysates; type: cell-based, human; settings: SK-MEL-28; after 3 days of treatment with BQ788
# Protocol: Equal amounts of RNA from cells that were treated with BQ788 for 3 days were subjected to real-time RT-PCR analysis for the detection of BCL-2A1 (A) and ADP ribosyltransferase 3 (B) transcripts. Total amounts are represented in A while relative (to control) values are shown in B. Differences in expression levels are shown as x fold decrease and are statistically significant (p<0.05) unless a column in marked as non significant (N.S.). Lysates of BQ788 treated cells and controls were subjected to an apoptosis ELISA detection test (C). SK-MEL-28 cells were cultured with pan caspase inhibitor (D) or with caspase 6 inhibitor (E) with or without BQ788 for 2.5 days. […] SK-MEL-28 cells were cultured for 3 days in the presence of BQ788 and assayed for caspase 6 activity (F). […]
# Caspase 3 inhibitor I (inhibits caspases 3, 6, 7, 8 & 10), cell-permeable (Calbiochem) and Caspase 6 inhibitor II, Cell-Permeable (Calbiochem) were dissolved in DMSO. […] Cell viability was measured using MTS solution in parallel experiments at 5 different time points. Caspase 6 activity was measured using Mch2/Caspase-6 Colorimetric Protease Assay Kit according to the manufacturer's instructions. […] Caspase 6 activity was measured in 4 samples containing equal amounts of protein from each condition by spectrophotometric detection of a chromophore following its release from the labeled caspase 6 substrate VEID. […]
# VEGF = experiment: Real-time RT-PCR of VEGF transcripts; type: cell-based, human; settings: BQ788 3 days
# Protocol: Equal amounts of RNA from cells that were treated with BQ788 for 3 days were subjected to real-time RT-PCR analysis for the detection VEGF (A), HIF-1α (B) and Gravin (C) transcripts. Differences in expression levels are shown as x fold change and are statistically significant (p<0.05) unless a column in marked as non significant (N.S.). Sections of two representative tumors derived from a human melanoma cell line grown in nude mice and injected either with vehicle (D) or BQ788 (E) were stained with anti CD-31 to highlight blood vessels (brown staining, Lahav et al, 1999).
# RNA was prepared from the different cell lines in different culture conditions using SV total RNA isolation kit (Promega) according to the manufacturer's protocol. For each sample RNA concentration was determined using the total RNA nano procedure of an Agilent bioanalyzer. A stock of SK-MEL-28 RNA aliquots was prepared containing 10, 20, 50, 100, 200, 500 and 1000 ng/12 μl for use as a standard curve and kept in −80° C. For the experimental unknown samples, a stock of 100 ng/12 μl RNA aliquots from each cell line and condition was prepared and stored at −80° C. For each real-time experiment one series of standard curve and unknown experimental series of aliquots was put on ice for use. Complementary DNA was prepared by adding to each tube 0.5 μl of random hexamers (Promega) and 1 μl of 10 mM dNTP mix (Promega) and incubating at 65° C. for 5 min. 4 μl of 5× M-MLV buffer (Promega), 1 μl of the RNase inhibitor RNasin (Promega) and 1 μl of M-MLV RT RNase H (Promega) were then added and the solution was incubated at 42° C. for 50 min followed by 15 min at 70° C. For real time reactions 15 μl of each cDNA sample were transferred to 3 wells in a 386 well plate. To each well we added 10 μl of TaqMan universal PCR master mix (Applied Biosystems), 1 μl of primers+probe mix (Assays-on-Demand from Applied Biosystems: EDNRB Hs00240747, BCL-2A1 Hs00187845, PARP-3 Hs00154151, VEGF Hs00173626, HIF-1α Hs00153153 and Gravin Hs00374507) and 4 μl of nuclease free water (Promega). Wells containing water instead of cDNA served as negative controls. The samples were subjected to 40 cycles of 15 sec at 95° C. and 1 min at 60° C. A standard curve of Ct versus RNA quantity was established and accordingly the Ct in the unknown samples was correlated to quantity of transcript.
# Real-time PCR analysis confirmed that VEGF expression levels increased 18-fold in BQ788 treated LN-met cells and 65-fold in SK-MEL-28 cells, compared to only 2-fold in primary melanoma, and no change in the Cut-met line (FIG. 5). The changes in VEGF expression levels can be explained, at least in part, by changes in the expression levels of its known regulator hypoxia inducible factor-1 oc (HIF-1α) (Maxwell, et al., Oxygen sensors and angiogenesis, Semin. Cell Dev. Biol., 13:29-37 (2002)). […]
smiles,measurement,setting,value
"CCCC[C@@H](NC(=O)[C@@H](Cc1cn(C(=O)OC)c2ccccc12)NC(=O)[C@H](CC(C)(C)C)NC(=O)N1[C@H](C)CCC[C@@H]1C)C(=O)O [BQ788, N-cis-2,6-dimethylpiperidinocarbonyl-L-γ-methylleucyl-D-1-methoxycarbonyltrptophanyl-D-norleucine]",caspase 6 activation,caspase 6,could be detected
same,VEGF expression level change,VEGF; Cut-met line,no change
same,increase in VEGF expression levels,VEGF; LN-met cells,18 fold
same,increase in VEGF expression levels,VEGF; SK-MEL-28 cells,65 fold
same,increase in VEGF expression levels,VEGF; primary melanoma,2 fold
